Data reported in patent publication US20150045409A1, “AMIDE COMPOUND AND USE THEREOF FOR PEST CONTROL” (SUMITOMO CHEMICAL COMPANY, LIMITED, priority 2012, published 2015).

Assays:
Type in all cases: in vivo
[1] = test system: German cockroaches (Blattella germanica); assay: Spray knockdown test on German cockroaches (Test Examples 1, 2); conditions: 5 min, 1.5 ml sprayed, counted after 5 minutes, read-out: knockdown rate; for pest or weed control at 0.5 %: active ingredient 0.5% w/v oil solution; for pest or weed control at 2 %: active ingredient 2.0% w/v oil solution
Description: The formulations of Compounds (7), (46), (48) and (54) of the present invention obtained in Formulation Example 7 were diluted with a mixture solution of isopropyl alcohol/deodorized kerosene of 1/9, so as to have a concentration of active ingredient of 2.0% w/v, to prepare a test drug solution.
Ten German cockroaches (Blattella germanica) (5 males and 5 females) were released in a test container (8.75 cm in diameter, 7.5 cm in height, and the bottom made of 16 mesh metallic wire) with the inner wall on which butter was applied, and the container was placed on the bottom of a test chamber (bottom: 46 cm×46 cm, height: 70 cm). From a height of 60 cm above the upper surface of the container, 1.5 ml of the test drug solution was sprayed using a spray gun (a spraying pressure of 0.42 kg/cm^2). Thirty seconds after spraying, the container was taken out from the test chamber, and after 5 minutes, the number of knockdown insects was counted to obtain a knockdown rate. The knockdown rate was calculated by the following equation.
(§1) Knockdown Rate(%)=(Number of Knockdown Insects/Number of Tested Insects)×100
The formulations of Compounds (1), (2), (4), (6) to (8), (10) to (14), (17) to (20), (23) to (25), (28), (31) to (33), (39) to (42), (44) and (50) to (53) of the present invention obtained in Formulation Example 7 were diluted with a mixture solution with a ratio of isopropyl alcohol/deodorized kerosene of 1/9, so as to have a concentration of active ingredient of 0.5% w/v, to prepare a test drug solution.
The test was performed in the same manner as in Test Example 1.

[2] = test system: adult houseflies (Musca domestica); assay: Filter paper/sucrose bait knockdown test on adult houseflies (Test Example 7); conditions: 0.7 ml on filter paper with sucrose bait, after 2 hours, read-out: knockdown rate
Description: (§2) Each of the formulations of Compounds (2), (4) to (6), (8), (9), (18), (21) to (23), (27), (29), (32) to (36), (38), (41), (42) and (53) of the present invention obtained in Formulation Example 15 was diluted with water, so as to have a concentration of active ingredient of 500 ppm, to prepare a test drug solution.
(§3) On the bottom of a polyethylene cup with a diameter of 5.5 cm, a filter paper of the same size was laid down, and 0.7 ml of the test drug solution was dropped onto the filter paper, then 30 mg of sucrose was uniformly put as bait. Ten adult houseflies (Musca domestica) were released in the polyethylene cup which was then capped. After 2 hours, the number of knockdown insects was counted to obtain a knockdown rate. The knockdown rate was calculated by the following equation.
as §1

adult houseflies = assay: Spray knockdown test on adult houseflies (Test Examples 3, 4); conditions: Musca domestica, 10 min, 0.5 ml sprayed, counted after 10 minutes, read-out: knockdown rate; for pest or weed control at 0.5 %: active ingredient 0.5% w/v oil solution; for pest or weed control at 2 %: active ingredient 2.0% w/v oil solution
Description: The formulations of Compounds (7), (46) and (48) of the present invention obtained in Formulation Example 7 were diluted with a mixture solution with a ratio of isopropyl alcohol/deodorized kerosene of 1/9, so as to have a concentration of active ingredient of 2.0% w/v, to prepare a test drug solution.
Ten adult houseflies (5 males and 5 females) were released in a polyethylene cup (a bottom diameter of 10.6 cm) which was then capped with 16-mesh nylon gauze. The polyethylene cup was placed on the bottom of a test chamber (bottom: 46 cm×46 cm, height: 70 cm). From a height of 30 cm above the upper surface of the polyethylene cup, 0.5 ml of the test drug solution was sprayed using a spray gun (a spraying pressure of 0.9 kg/cm^2). Immediately after spraying, the cup was taken out from the test container, and after 10 minutes, the number of knockdown insects was counted to obtain a knockdown rate. The knockdown rate was calculated by the following equation.
as §1
The formulations of Compounds (4), (6), (8), (17) to (19), (28), (29), (33), (40) to (42) and (51) to (53) of the present invention obtained in Formulation Example 7 were diluted with a mixture solution with a ratio of isopropyl alcohol/deodorized kerosene of 1/9, so as to have a concentration of active ingredient of 0.5% w/v, to prepare a test drug solution. The test was performed in the same manner as in Test Example 3.

[3] = test system: last instar larvae of common house mosquitoes (Culex pipiens pallens); assay: Larvicidal test on common house mosquito larvae in water (Test Examples 9, 10); conditions: active ingredient 3.5 ppm in water
Description: Each of the formulations of Compounds (26) and (45) of the present invention obtained in Formulation Example 15 was diluted with water, so as to have a concentration of active ingredient of 500 ppm, to prepare a test drug solution.
0.7 ml of the test drug solution was added to 100 ml of ion-exchanged water (a concentration of active ingredient of 3.5 ppm).
Each of the formulations of Compounds (5), (6), (24), (27), (29), (30), (33), (38) and (47) of the present invention obtained in Formulation Example 15 was diluted with water, so as to have a concentration of active ingredient of 500 ppm, to prepare a test drug solution.

[4] = test system: adult houseflies (Musca domestica); assay: Filter paper/sucrose bait mortality test on adult houseflies (Test Example 8); conditions: 0.7 ml on filter paper with sucrose bait, after 24 hours
Description: as §2, with “(2)” for “(2), (4)”, “(12), (15) to” for “(9),”, “(18),” for “(18), (21) to (23),”, “(33), (37)” for “(32)”, “(39),” for “(36), (38),”, “(45)” for “(53)”
as §3, with “capped.” for “capped. After 2 hours, the number of knockdown insects was counted to obtain a knockdown rate. The knockdown rate was calculated by the following equation.”

## CCCCC/C=C/C(=O)NCC1CCOC1 (stereo not drawn) [Compound (1), (E)-N-(tetrahydrofuran-3-ylmethyl)-2-octenamide]
[1]
  pest or weed control at 0.5 %: ≥ 70%

## CCCCCC/C=C/C(=O)NCC1CCOC1 (stereo not drawn) [Compound (2), (E)-N-(tetrahydrofuran-3-ylmethyl)-2-nonenamide]
[2]
  pest or weed control at 500 ppm: 100%
[1]
  pest or weed control at 0.5 %: ≥ 70%

## CCCCCCC/C=C/C(=O)NCC1CCOC1 (stereo not drawn) [Compound (4), (E)-N-(tetrahydrofuran-3-ylmethyl)-2-decenamide]
Adult houseflies
  pest or weed control at 0.5 %: ≥ 80%
[1]
  pest or weed control at 0.5 %: ≥ 70%

## CCCCCCCC/C=C/C(=O)NCC1CCOC1 (stereo not drawn) [Compound (5), (E)-N-(tetrahydrofuran-3-ylmethyl)-2-undecenamide]
[3]; 192 h, after 8 days
  mortality at 3.5 ppm: ≥ 95%

## CCCCCC/C(C)=C/C(=O)NCC1CCOC1 (stereo not drawn) [Compound (6), (E)-N-(tetrahydrofuran-3-ylmethyl)-3-methyl-2-nonenamide]
Adult houseflies
  pest or weed control at 0.5 %: ≥ 80%
[3]; 192 h, after 8 days
  mortality at 3.5 ppm: ≥ 95%

## CCCCCC/C=C(\F)C(=O)NCC1CCOC1 (stereo not drawn) [Compound (7), (Z)—N-(tetrahydrofuran-3-ylmethyl)-2-fluoro-2-nonenamide]
Adult houseflies
  pest or weed control at 2 %: ≥ 80%
[1]
  pest or weed control at 2 %: ≥ 80%

## CCCCCC/C(C)=C(\F)C(=O)NCC1CCOC1 (stereo not drawn) [Compound (8), (Z)—N-(tetrahydrofuran-3-ylmethyl)-2-fluoro-3-methyl-2-nonenamide]
[2]
  pest or weed control at 500 ppm: 100%
Adult houseflies
  pest or weed control at 0.5 %: ≥ 80%
[4]
  mortality at 500 ppm: ≥ 90%

## CCCCCC/C(C)=C(/F)C(=O)NCC1CCOC1 (stereo not drawn) [Compound (9), (E)-N-(tetrahydrofuran-3-ylmethyl)-2-fluoro-3-methyl-2-nonenamide]
[2]
  pest or weed control at 500 ppm: 100%

## C=CCCCCC/C=C/C(=O)NCC1CCOC1 (stereo not drawn) [Compound (12), (E)-N-(tetrahydrofuran-3-ylmethyl)-deca-2,9-dienamide]
[4]
  mortality at 500 ppm: ≥ 90%

## CCCC1CC1/C=C/C(=O)NCC1CCOC1 (stereo not drawn) [Compound (18), (E)-N-(tetrahydrofuran-3-ylmethyl)-3-(trans-2′-propylcyclopropyl)-2-propenamide]
[2]
  pest or weed control at 500 ppm: 100%

## CCCCC/C=C/C(=O)NCC1CCOCC1 [Compound (24), (E)-N-(tetrahydropyran-4-ylmethyl)-2-octenamide]
[3]; 192 h, after 8 days
  mortality at 3.5 ppm: ≥ 95%

## CCCCCCC/C=C/C(=O)NCC1CCOCC1 [Compound (26), (E)-N-(tetrahydropyran-4-ylmethyl)-2-decenamide]
[3]; after a day
  mortality at 3.5 ppm: ≥ 95%

## CCCCCCCC/C=C/C(=O)NCC1CCOCC1 [Compound (27), (E)-N-(tetrahydropyran-4-ylmethyl)-2-undecenamide]
[2]
  pest or weed control at 500 ppm: 100%
[4]
  mortality at 500 ppm: ≥ 90%
[3]; 192 h, after 8 days
  mortality at 3.5 ppm: ≥ 95%

## CCCCCC/C(C)=C/C(=O)NCC1CCOCC1 [Compound (28), (E)-N-(tetrahydropyran-4-ylmethyl)-3-methyl-2-nonenamide]
Adult houseflies
  pest or weed control at 0.5 %: ≥ 80%
[1]
  pest or weed control at 0.5 %: ≥ 70%

## CCCCCC/C(C)=C(\F)C(=O)NCC1CCOCC1 [Compound (29), (Z)—N-(tetrahydropyran-4-ylmethyl)-2-fluoro-3-methyl-2-nonenamide]
[2]
  pest or weed control at 500 ppm: 100%
Adult houseflies
  pest or weed control at 0.5 %: ≥ 80%
[4]
  mortality at 500 ppm: ≥ 90%
[3]; 192 h, after 8 days
  mortality at 3.5 ppm: ≥ 95%

## CCCCCC/C(C)=C(/F)C(=O)NCC1CCOCC1 [Compound (30), (E)-N-(tetrahydropyran-4-ylmethyl)-2-fluoro-3-methyl-2-nonenamide]
[3]; 192 h, after 8 days
  mortality at 3.5 ppm: ≥ 95%

## C=CCCCCC/C=C/C(=O)NCC1CCOCC1 [Compound (33), (E)-N-(tetrahydropyran-4-ylmethyl)-deca-2,9-dienamide]
Adult houseflies
  pest or weed control at 0.5 %: ≥ 80%
[4]
  mortality at 500 ppm: ≥ 90%
[3]; 192 h, after 8 days
  mortality at 3.5 ppm: ≥ 95%

## C#CCCCC/C=C/C(=O)NCC1CCOCC1 [Compound (38), (E)-N-(tetrahydropyran-4-ylmethyl)-non-2-en-8-ynamide]
[2]
  pest or weed control at 500 ppm: 100%
[3]; 192 h, after 8 days
  mortality at 3.5 ppm: ≥ 95%

## CCCC1CC1/C=C/C(=O)NCC1CCOCC1 (stereo not drawn) [Compound (41), (E)-N-(tetrahydropyran-4-ylmethyl)-3-(trans-2′-propylcyclopropyl)-2-propenamide]
[2]
  pest or weed control at 500 ppm: 100%
[4]
  mortality at 500 ppm: ≥ 90%

## CCCCC1CC1/C=C/C(=O)NCC1CCOCC1 (stereo not drawn) [Compound (42), (E)-N-(tetrahydropyran-4-ylmethyl)-3-(trans-2′-butylcyclopropyl)-2-propenamide]
[2]
  pest or weed control at 500 ppm: 100%
[4]
  mortality at 500 ppm: ≥ 90%

## CCC1CC1CC/C=C/C(=O)NCC1CCOCC1 (stereo not drawn) [Compound (44), (E)-N-(tetrahydropyran-4-ylmethyl)-5-(trans-2′-ethylcyclopropyl)-2-pentenamide]
[1]
  pest or weed control at 0.5 %: ≥ 70%

## CCCCCC/C=C/C(=O)NCC1CCCCO1 (stereo not drawn) [Compound (46), (E)-N-(tetrahydropyran-2-ylmethyl)-2-nonenamide]
Adult houseflies
  pest or weed control at 2 %: ≥ 80%
[1]
  pest or weed control at 2 %: ≥ 80%

## CCCCCC/C=C/C(=O)NCC1COCCO1 (stereo not drawn) [Compound (47), (E)-N-(1,4-dioxan-2-ylmethyl)-2-nonenamide]
[3]; 192 h, after 8 days
  mortality at 3.5 ppm: ≥ 95%

## CCCCCC/C=C/C(=O)NCC1(CC)COCOC1 [Compound (48), (E)-N-(5-ethyl-1,3-dioxan-5-ylmethyl)-2-nonenamide]
Adult houseflies
  pest or weed control at 2 %: ≥ 80%
[1]
  pest or weed control at 2 %: ≥ 80%

## CC1CC1C1CC1/C=C/C(=O)NCC1CCOCC1 (stereo not drawn) [Compound (53), (E)-N-(tetrahydropyran-4-ylmethyl)-3-(trans-2′-(trans-2″-methylcyclopropyl)cyclopropyl)-2-propenamide]
[2]
  pest or weed control at 500 ppm: 100%

## O=C(/C=C/CCCCCl)NCC1CCOCC1 [Compound (54), (E)-N-(tetrahydropyran-4-ylmethyl)-7-chloro-2-heptenamide]
[1]
  pest or weed control at 2 %: ≥ 80%
